The results in this text go back to ChEMBL document CHEMBL5653631, “A Potent and Selective ULK1 Inhibitor Suppresses Autophagy and Sensitizes Cancer Cells to Nutrient Stress” (iScience, 2018).

In assay [1] the target is Serine/threonine-protein kinase mTOR (Homo sapiens) (UniProt P42345). Briefly: Inhibition of human recombinant FRAP at 40 nM in presence of ATP by radiometric assay relative to control.
Assay [2] addresses T1, Tyrosine-protein kinase receptor TYRO3 (Homo sapiens) (UniProt Q06418).
T1 sequence (whole entry): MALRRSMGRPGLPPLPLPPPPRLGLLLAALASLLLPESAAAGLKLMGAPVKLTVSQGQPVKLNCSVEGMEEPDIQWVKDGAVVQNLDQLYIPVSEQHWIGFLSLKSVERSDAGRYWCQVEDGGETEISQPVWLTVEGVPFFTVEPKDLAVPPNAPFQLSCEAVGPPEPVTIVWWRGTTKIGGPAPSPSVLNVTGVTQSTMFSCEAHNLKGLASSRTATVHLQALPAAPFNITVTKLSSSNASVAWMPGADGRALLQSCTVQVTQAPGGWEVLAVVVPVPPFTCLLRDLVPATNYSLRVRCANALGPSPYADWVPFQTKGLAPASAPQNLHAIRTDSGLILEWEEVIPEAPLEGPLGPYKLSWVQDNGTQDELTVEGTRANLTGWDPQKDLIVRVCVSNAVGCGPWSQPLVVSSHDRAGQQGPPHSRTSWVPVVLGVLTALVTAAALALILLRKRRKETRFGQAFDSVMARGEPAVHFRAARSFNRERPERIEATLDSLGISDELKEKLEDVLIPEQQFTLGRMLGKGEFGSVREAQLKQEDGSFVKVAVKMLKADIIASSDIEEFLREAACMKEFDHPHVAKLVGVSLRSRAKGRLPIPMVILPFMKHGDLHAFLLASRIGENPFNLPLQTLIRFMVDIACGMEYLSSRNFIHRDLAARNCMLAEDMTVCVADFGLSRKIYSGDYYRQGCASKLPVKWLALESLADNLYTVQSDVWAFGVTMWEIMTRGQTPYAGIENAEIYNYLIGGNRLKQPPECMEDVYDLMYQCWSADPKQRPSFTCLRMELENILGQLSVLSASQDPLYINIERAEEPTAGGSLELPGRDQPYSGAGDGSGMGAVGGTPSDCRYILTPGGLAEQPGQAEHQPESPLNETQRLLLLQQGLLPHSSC
Briefly: Inhibition of human recombinant TYRO3 at 40 nM related to control ULK1.

Assay [3] has as its target T2, Serine/threonine-protein kinase haspin (Homo sapiens) (UniProt Q8TF76).
T2 sequence (whole entry): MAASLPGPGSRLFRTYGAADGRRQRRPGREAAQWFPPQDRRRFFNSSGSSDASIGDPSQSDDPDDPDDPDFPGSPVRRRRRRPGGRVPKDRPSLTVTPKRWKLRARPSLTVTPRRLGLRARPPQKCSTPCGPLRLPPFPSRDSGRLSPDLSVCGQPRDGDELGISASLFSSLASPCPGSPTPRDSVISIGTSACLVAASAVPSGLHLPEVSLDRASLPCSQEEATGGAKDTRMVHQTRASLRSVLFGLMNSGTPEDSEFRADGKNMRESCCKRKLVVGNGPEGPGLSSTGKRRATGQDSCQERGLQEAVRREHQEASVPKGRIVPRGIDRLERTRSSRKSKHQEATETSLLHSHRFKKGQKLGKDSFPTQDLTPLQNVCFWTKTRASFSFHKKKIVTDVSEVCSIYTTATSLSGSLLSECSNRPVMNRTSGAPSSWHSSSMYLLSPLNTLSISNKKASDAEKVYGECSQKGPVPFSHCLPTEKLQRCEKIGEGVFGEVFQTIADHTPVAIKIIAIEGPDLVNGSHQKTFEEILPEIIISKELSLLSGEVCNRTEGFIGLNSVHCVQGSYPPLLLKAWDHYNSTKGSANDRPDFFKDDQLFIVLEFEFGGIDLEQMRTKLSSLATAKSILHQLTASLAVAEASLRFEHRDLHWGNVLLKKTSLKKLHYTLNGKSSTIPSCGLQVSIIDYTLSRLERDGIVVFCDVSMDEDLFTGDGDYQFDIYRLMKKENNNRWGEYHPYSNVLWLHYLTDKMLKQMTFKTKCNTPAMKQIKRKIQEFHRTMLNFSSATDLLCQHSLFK
Briefly: Inhibition of human recombinant Haspin at 500 nM related to control ULK1.

The target of assay [4] is T3, Eukaryotic translation initiation factor 2-alpha kinase 3 (Homo sapiens) (UniProt Q9NZJ5).
T3 sequence (whole entry): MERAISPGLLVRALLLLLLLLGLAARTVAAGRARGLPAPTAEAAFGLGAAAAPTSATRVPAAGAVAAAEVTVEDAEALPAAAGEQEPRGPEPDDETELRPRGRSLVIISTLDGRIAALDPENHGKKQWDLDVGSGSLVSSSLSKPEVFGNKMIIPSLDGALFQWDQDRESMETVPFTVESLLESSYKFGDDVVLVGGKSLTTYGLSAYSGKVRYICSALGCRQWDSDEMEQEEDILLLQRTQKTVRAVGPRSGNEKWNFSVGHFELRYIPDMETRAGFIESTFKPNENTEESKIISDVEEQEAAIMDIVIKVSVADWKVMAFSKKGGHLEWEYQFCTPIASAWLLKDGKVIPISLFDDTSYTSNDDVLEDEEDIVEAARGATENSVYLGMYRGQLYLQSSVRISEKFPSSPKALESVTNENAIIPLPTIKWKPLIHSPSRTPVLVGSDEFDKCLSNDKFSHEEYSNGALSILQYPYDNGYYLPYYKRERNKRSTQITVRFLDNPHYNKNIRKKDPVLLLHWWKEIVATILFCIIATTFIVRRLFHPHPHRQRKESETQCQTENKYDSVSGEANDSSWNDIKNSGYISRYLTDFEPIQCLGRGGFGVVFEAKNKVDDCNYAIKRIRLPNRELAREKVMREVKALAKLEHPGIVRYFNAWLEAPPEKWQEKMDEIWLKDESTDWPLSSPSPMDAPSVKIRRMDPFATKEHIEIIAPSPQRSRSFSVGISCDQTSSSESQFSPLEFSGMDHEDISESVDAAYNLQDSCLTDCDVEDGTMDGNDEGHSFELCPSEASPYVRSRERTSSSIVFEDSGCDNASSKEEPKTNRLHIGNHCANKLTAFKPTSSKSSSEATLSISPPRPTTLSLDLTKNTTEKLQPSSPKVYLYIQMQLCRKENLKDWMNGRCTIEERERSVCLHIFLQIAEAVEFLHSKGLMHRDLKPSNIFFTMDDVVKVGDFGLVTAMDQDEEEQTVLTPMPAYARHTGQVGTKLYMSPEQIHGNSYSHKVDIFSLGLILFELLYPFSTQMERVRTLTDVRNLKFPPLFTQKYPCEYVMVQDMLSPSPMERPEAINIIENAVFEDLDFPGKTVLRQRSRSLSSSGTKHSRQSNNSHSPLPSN
As to the kind of experiment: Inhibition of human recombinant PEK at 15 nM in presence of ATP by radiometric assay relative to control.

In general, inhibition refers to the share of the control response that was lost under treatment. Consider `O=C(N[C@@H](C1CC1)C(F)(F)F)c1cc(-c2cnn3cc(-c4ccc(F)cc4)cnc23)cs1`, for which the inhibition in assay [1] turned out to be 0%. The fold change (FC) in assay [2] came to 0.

Take `CNC(=O)c1ccccc1Oc1nc(Nc2cc(OC)c(OC)c(OC)c2)ncc1Br`: in assay [3], the fold change (FC) was 0.

Regarding `CC(C)[C@H](NC(=O)c1cc(-c2cnn3cc(-c4ccc(OCCN5CCCCC5)cc4)cnc23)cs1)C(F)(F)F`, in assay [4], the inhibition amounted to 0%.
